≈ marks a conversion by molar mass, not a printed value. Bridge positions count the residues as written; N and C are the ends. Peptide text beside a SMILES is read from it.
Legend:
Format in all cases: cell-based, Cutibacterium acnes
C. acnes HL007PA1 = settings: C. acnes HL007PA1; RCM broth, anaerobic, 1 × 10^6 CFU per mL, two-fold dilutions 0.5–32 μg/mL, 48 h, OD 600 nm; mean of three replicates
Method in brief: (§1)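 Log-phase cultures (OD600nm = 1.0, RCM plus sodium thioglycolate, 37 °C) diluted to 1 × 10^6 CFU per mL; 2-fold dilutions 0.5–32 μg per mL, 48 h, anaerobic; MIC by OD600nm; n = 3.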

[1] = tested on: ten C. acnes clinical isolates and two C. acnes ATCC reference strains
Method in brief: as §1

C. acnes HL082PA2 = settings: C. acnes HL082PA2; RCM broth, anaerobic, 1 × 10^6 CFU per mL, two-fold dilutions 0.5–32 μg/mL, 48 h, OD 600 nm; mean of three replicates
Method in brief: as §1

C. acnes HL038PA1 = settings: C. acnes HL038PA1; RCM broth, anaerobic, 1 × 10^6 CFU per mL, two-fold dilutions 0.5–32 μg/mL, 48 h, OD 600 nm; mean of three replicates
Method in brief: as §1

C. acnes HL043PA1 = settings: C. acnes HL043PA1; RCM broth, anaerobic, 1 × 10^6 CFU per mL, two-fold dilutions 0.5–32 μg/mL, 48 h, OD 600 nm; mean of three replicates
Method in brief: as §1

C. acnes HL043PA2 = C. acnes HL043PA2 (multi-drug resistant); RCM broth, anaerobic, 1 × 10^6 CFU per mL, two-fold dilutions 0.5–32 μg/mL, 48 h, OD 600 nm; mean of three replicates
Method in brief: as §1

C. acnes HL013PA1 = settings: C. acnes HL013PA1; RCM broth, anaerobic, 1 × 10^6 CFU per mL, two-fold dilutions 0.5–32 μg/mL, 48 h, OD 600 nm; mean of three replicates
Method in brief: as §1

With CC[C@H](C)[C@@H]1NC(=O)CNC(=O)[C@H](CCCCN)NC(=O)[C@H](Cc2ccc(O)cc2)NC(=O)[C@@H]2CSSC[C@H](NC1=O)C(=O)N[C@@H](Cc1ccc(O)cc1)C(=O)N[C@@H](CCCCN)C(=O)N[C@@H](CCCCN)C(=O)N[C@H](C(=O)N[C@@H](CCCCN)C(N)=O)CSSC[C@H](NC(=O)[C@H](Cc1c[nH]c3ccccc13)NC(=O)[C@@H](N)CCCNC(=N)N)C(=O)N[C@@H](Cc1ccccc1)C(=O)N[C@@H](CCCCN)C(=O)N[C@@H](C(C)C)C(=O)N2 [RP556] (H-RWCFKVCYKGICYKKCK-NH2; disulfide 3-16, 7-12) the MIC (C. acnes HL007PA1) was 4 µg/mL (≈ 1.86 µM), the “in vitro anti-bacterial activity against the C. acnes bacterial strains (in words)” value ([1]; 0.5–32 μg/mL concentration range evaluated) was “most active” and the “MIC values against all C. acnes isolates” value ([1]; span over ten antibiotic resistant isolates and two ATCC reference strains) was 2 to 8 µg/mL. The MIC (C. acnes HL082PA2) was 2 µg/mL (≈ 0.929 µM), the MIC (C. acnes HL038PA1) was 4 µg/mL (≈ 1.86 µM) and the MIC (C. acnes HL043PA1) was 4 µg/mL (≈ 1.86 µM). The MIC (C. acnes HL043PA2) was 4 µg/mL (≈ 1.86 µM) and the MIC (C. acnes HL013PA1) was 2 µg/mL (≈ 0.929 µM).
